Experimental data: US20160039936A1, “FIBROBLAST GROWTH FACTOR RECEPTOR INHIBITION FOR THE TREATMENT OF DISEASE” (UNIVERSITY OF MIAMI, priority 2011, published 2016)

Experiments:
[1] = tested on: isolated NRVM; experiment: Cross-sectional area (hypertrophy) of isolated NRVM with receptor antagonists (Example 4); assay type: cell-based, rat; conditions: for cross-sectional area of isolated NRVM: 48 h, FGF alone 25 ng/ml vs PBS
Method: (§1) NRVM were isolated using a standard isolation system (Worthington Biochemical Corporation) (Faul et al., 2011). Hearts from 1-2 day old Sprague Dawley rats were harvested, minced in calcium-and magnesium-free Hank's Balanced Salt Solution (HBSS), and the tissue digested with 50 μg/ml trypsin at 4° C. for 20-24 hours. Soybean trypsin inhibitor in HBSS was added, and the tissue was further digested with collagenase (in Leibovitz L-15 medium) under slow rotation (15 rpm) at 37° C. for 45 minutes. Cells were released by triturating the suspension 20 times with a standard 10 ml plastic serological pipette and filtering it twice through a cell strainer (70 μm, BD Falcon). Cells were incubated at room temperature for 20 minutes and spun at 100 g for 5 minutes. The cell pellet was resuspended in plating medium [Dulbecco's Modified Eagle Medium (DMEM; Cellgro) with 17% Media 199 (Invitrogen), 15% fetal bovine serum (FBS; Invitrogen) and 1% penicillin/streptomycin solution (P/S; Invitrogen)]. Cells were counted using a hemocytometer.
Cells were plated on glass and plastic surfaces, which were coated with laminin (Invitrogen; 10 μg/ml in PBS) at room temperature for 1 hour prior to plating. For immunofluorescence analysis, 3×10^5 cells were seeded per well on glass coverslips in 24-well plates. For Western blot or qPCR analyses of total extracts, 1×10^6 cells were seeded per well in 6-well plates, and for immunoprecipitation assays, 5×10^6 cells were seeded in 10 cm-culture dishes. Cells were left undisturbed in plating medium at 37° C. for 72 hours and then cultured in maintenance medium (DMEM with 20% Media 199, 1% insulin-transferrin-sodium selenite solution [ITS; Sigma-Aldrich] and 1% P/S) in the presence of 100 μM 5-bromo-2′-deoxyuridine (BrdU; Sigam-Aldrich). After 4 days, isolated cardiac myocytes were cultured in BrdU-containing maintenance medium in the presence of recombinant murine FGF23 or FGF2 (both at 25 ng/ml) for different time points.
Cultured cells were fixed in 2% PFA (in 5 mg/ml sucrose) for 5 minutes and permeabilized in 1% Triton X-100 (in PBS) for 10 minutes. We analyzed hypertrophic growth of isolated NRVM and NMVM on laminin-coated glass coverslips after 48 hours of treatment with growth factors. For FGFR4 expression and localization analyses, untreated NMVM from wild-type and FGFR4^−/− mice were immunolabeled. The mouse monoclonal antibody against sarcomeric α-actinin (EA-53; Sigma-Aldrich) was used at 1:1,000, and rabbit polyclonal anti-FGFR4 (C-16; Santa Cruz) at 1:50. Cy3-conjugated goat-anti mouse and Alexa488-conjugated goat-anti rabbit (Jackson Immuno Research) were used as secondary antibodies at 1:300. To visualize nuclei, fixed cells were incubated with 4′,6-diamidino-2-phenylindole (DAPI; 400 ng/ml in PBS) for 10 minutes. Immunofluorescence images were taken on a Leica TCS-SP5 confocal microscope with a 63× oil objective.
Myocyte cross-sectional area was measured based on α-actinin-positive staining using Leica AF6000 fluorescence software. To assess the signaling pathways involved in FGF23- and FGF2-mediated hypertrophy, we analyzed the morphometry of plated cells that were pre-treated with specific inhibitors for 60 minutes prior to the addition of the FGFs at 25 ng/ml (NRVMs) or at 100 ng/ml (NMVMs). The following inhibitors and concentrations were used: pan-FGFR, PD173074 (Sigma-Aldrich) at 10 nM; FGFR1-3, AZD4547 (ChemieTek) at 5 nM; and FGFR4 blocking antibody (human monoclonal, U3-11; U3Pharma) at 10 μg/ml.

[2] = tested on: isolated neonatal rat ventricular cardiac myocytes (NRVM); experiment: Surface area (hypertrophy) of isolated NRVM, immunocytochemistry and morphometry (Examples 1-2); assay type: cell-based; conditions: for cell surface area: 48 h incubation with the FGF alone
Method: as §1, with “(Toraason” for “(Faul”, “Toxicology, 56(1):107-117, 1989).” for “2011).”, “rats (Charles River)” for “rats”, “calcium- and” for “calcium-and”, “added” for “added,”, “by gently” for “by”
Cells were plated on glass and plastic surfaces which were coated with laminin (Invitrogen; 10μg/ml in PBS) at room temperature for 1 hour prior to plating. For immunofluorescence analysis, 1×10^6 cells were seeded per well on glass coverslips in 6-well plates. For protein and RNA isolation, 2×10^6 cells were seeded in 6 cm-culture dishes. Cells were left undisturbed in plating medium at 37° C. for 72 hours and then cultured in maintenance medium (DMEM with 20% Media 199, 1% insulin-transferrin-sodium selenite solution (ITS; Sigma-Aldrich) and 1% P/S) in the presence of 100 μM 5-bromo-2′-deoxyuridine (BrdU; Sigam-Aldrich) to eliminate proliferating non-myocytes resulting in a relatively pure population of isolated cardiac myocytes (Bishopric et al., 1987). After 4 days, isolated cardiac myocytes were cultured in BrdU-containing maintenance medium in the presence of recombinant murine FGF23 (26.1 kDa, 251 amino acids; R&D Systems) or FGF2 (16.2 kDa, 144 amino acids; R&D Systems) for 48 hours.
We analyzed isolated NRVM on laminin-coated glass coverslips by immunocytochemsitry according to our established protocols (Faul et al., Cell Biol., 169(3):415-424, 2005; Faul et al., Cell Biol., 27(23):8215-8227, 2007). The mouse monoclonal antibody against sarcomeric α-actinin (EA-53; Sigma-Aldrich) was used at 1:1000 and Cy3-conjugated goat-anti mouse (Jackson Immuno Research) as secondary antibody at 1:750. To visualize nuclei, fixed cells were incubated with 4′,6-diamidino-2-phenylindole (DAPI; 400 ng/ml in PBS) for 5 minutes. Immunofluorescence images were taken on a Leica TCS-SP5 confocal microscope with a 63× oil objective with a 1.6× zoom. Leica AF6000 fluorescence software was used to measure the cell surface area based on α-actinin-positive staining.
To assess the signaling pathways involved in FGF23- and FGF2-mediated hypertrophy, we analyzed the morphometry of plated cells that were pre-treated with specific inhibitors for 60 minutes prior to the addition of the FGFs at varying concentrations.

For `CCN(CC)CCCCNc1ncc2cc(-c3cc(OC)cc(OC)c3)c(NC(=O)NC(C)(C)C)nc2n1` [PD173074], the “FGF2-induced hypertrophy (cross-sectional area) with receptor antagonist” value ([1]; NRVM 48 h, FGF2 25 ng/ml, PD173074 10 nM, AZD4547 5 nM, anti-FGFR4 10 μg/ml) was “inhibited”, the “FGF23-induced hypertrophy (cross-sectional area) with receptor antagonist” value ([1]; NRVM 48 h, FGF23 25 ng/ml, PD173074 10 nM, AZD4547 5 nM, anti-FGFR4 10 μg/ml) was “inhibited” and the “FGF2-induced increase in cell surface area (hypertrophy) in presence of inhibitor” value ([2]; 48 h FGF2, inhibitor pre-treated 60 min at Table 2 concentration) was “completely blocked”. The “FGF23-induced increase in cell surface area (hypertrophy) in presence of inhibitor” value ([2]; 48 h FGF23, inhibitor pre-treated 60 min at Table 2 concentration) was “completely blocked”.

B1: FGF2: recombinant mouse FGF2 (Ala11-Ser154) (R&D Systems) (protein)
chain: ALPEDGGAAFPPGHFKDPKRLYCKNGGFFLRIHPDGRVDGVREKSDPHVKLQLQAEERGVVSIKGVCANRYLAMKEDGRLLASKCVTEECFFFERLESNNYNTYRSRKYSSWYVALKRTGQYKLGSKTGPGQKAILFLPMSAKS
B1 was tested, and the “cross-sectional area of isolated NRVM” value [1] was “significantly increases” and the cell surface area [2] was “significant increase”.

B2: FGF23: recombinant mouse FGF23, 6His-tagged Tyr25-Val251 (Arg179Gln) (R&D Systems) (protein)
chain: YPDTSPLLGSNWGSLTHLYTATARTSYHLQIHRDGHVDGTPHQTIYSALMITSEDAGSVVITGAMTRRFLCMDLHGNIFGSLHFSPENCKFRQWTLENGYDVYLSQKHHYLVSLGRAKRIFQPGTNPPPFSQFLARRNEVPLLHFYTVRPRRHTQSAEDPPERDPLNVLKPRPRATPVPVSCSRELPSAEEGGPAASDPLGVLRRGRGDARGGAGGADRCRPFPRFV
modifications: left off: small tags and cut ends
B2 was tested, and the “cross-sectional area of isolated NRVM” value [1] was “significantly increases” and the cell surface area [2] was “significant increase”.
